Values quoted from earlier work, collected in patent publication US7635572B2, “Methods for conducting assays for enzyme activity on protein microarrays” (Life Technologies Corporation, priority 2004, dated 2009).

System: 39 kinases (Table 4)
Settings: known general specificities of the inhibitors, Table 3; cited from earlier work

Oc1ccc(-c2nc(-c3ccncc3)c(-c3ccc(F)cc3)[nH]2)cc1 [SB 202190]
General Specificity (known): serine/threonine
